Results as given in patent publication US5071749A, “Glycopetide antibiotic PA-45052-B” (Shionogi & Co., Ltd., priority 1987, dated 1991).
Converted amounts (≈) assume the structure as drawn.

Experiments:
Cl. perfringens CW-1970 = type: cell-based, Clostridium perfringens; settings: strain CW-1970, origin cow; GAM agar, anaerobic, 37° C., 24 hours
[1] = tested on: Cl. perfringens NCTC-10239; type: cell-based, Clostridium perfringens; settings: strain NCTC-10239, origin cow; GAM agar, anaerobic, 37° C., 24 hours
[2] = tested on: Streptococcus pneumoniae Type I; assay: In vitro antibacterial activity, agar dilution method (MIC); settings: horse serum 0.5%, 37° C., 18-20 hrs
Cl. perfringens S-79 = type: cell-based, Clostridium perfringens; settings: strain S-79, origin cow; GAM agar, anaerobic, 37° C., 24 hours
[3] = tested on: Staphylococcus aureus PDA 209P JC-1; assay: In vitro antibacterial activity, agar dilution method (MIC); settings: 37° C., 18-20 hrs
Cl. perfringens 02441 = type: cell-based, Clostridium perfringens; settings: strain 02441, origin chicken; GAM agar, anaerobic, 37° C., 24 hours
[4] = tested on: Staphylococcus aureus SR14; assay: In vitro antibacterial activity, agar dilution method (MIC); type: cell-based; settings: Staphylococcus aureus SR14, penicillin-resistant, 37° C., 18-20 hrs
[5] = tested on: Staphylococcus aureus SR3626; assay: as above; type: cell-based; settings: Staphylococcus aureus SR3626, methicillin-resistant, 37° C., 18-20 hrs
Cl. perfringens 6B-10 = type: cell-based, Clostridium perfringens; settings: strain 6B-10, origin cow; GAM agar, anaerobic, 37° C., 24 hours
[6] = tested on: Streptococcus agalactiae SR 1247; assay: In vitro antibacterial activity, agar dilution method (MIC); settings: horse serum 0.5%, 37° C., 18-20 hrs
[7] = tested on: Staphylococcus aureus SMITH; assay: as above; settings: 37° C., 18-20 hrs
[8] = tested on: Cl. perfringens NCTC-8798; type: cell-based, Clostridium perfringens; settings: strain NCTC-8798, origin cow; GAM agar, anaerobic, 37° C., 24 hours
[9] = tested on: Cl. perfringens FC 2208/75; type: cell-based, Clostridium perfringens; settings: strain FC 2208/75, origin cow; GAM agar, anaerobic, 37° C., 24 hours
[10] = tested on: Staphylococcus aureus SR1626; assay: In vitro antibacterial activity, agar dilution method (MIC); type: cell-based; settings: Staphylococcus aureus SR1626, methicillin-resistant, 37° C., 18-20 hrs
Cl. perfringens 9C-02 = type: cell-based, Clostridium perfringens; settings: strain 9C-02, origin chicken; GAM agar, anaerobic, 37° C., 24 hours
[11] = tested on: Streptococcus pyogenes C-203; assay: In vitro antibacterial activity, agar dilution method (MIC); settings: horse serum 0.5%, 37° C., 18-20 hrs
[12] = tested on: Cl. perfringens NCTC-8239; type: cell-based, Clostridium perfringens; settings: strain NCTC-8239, origin cow; GAM agar, anaerobic, 37° C., 24 hours
[13] = tested on: Staphylococcus aureus SR 2030; assay: Antibacterial activity in vivo, mouse intraperitoneal infection (ED50); settings: Slc-ICR female mice, i.p. inoculation of S. aureus SR 2030 (methicillin-resistant); s.c. dosing 1 and 5 hours later; survival on day 7
Experimental: (§1) Test method: The test organism is intraperitoneally inoculated to Slc-ICR female mice (8 mice per group), and PA-45052-A, -B or -C (two-fold dilution) is subcutaneously administered twice one hour later and 5 hours later.
(§2) Results: The 50% effective dose (ED50) is calculated from the survival rate on day 7.

[14] = tested on: Streptococcus pneumoniae Type I; assay: as above; settings: Slc-ICR female mice, i.p. inoculation of Streptococcus pneumoniae Type I; s.c. dosing 1 and 5 hours later; survival on day 7
Experimental: as §1, §2

[15] = tested on: Streptococcus pyogenes C-203; assay: as above; settings: Slc-ICR female mice, i.p. inoculation of Streptococcus pyogenes C-203; s.c. dosing 1 and 5 hours later; survival on day 7
Experimental: as §1, §2

[16] = tested on: Staphylococcus aureus SR 3637; assay: as above; settings: Slc-ICR female mice, i.p. inoculation of S. aureus SR 3637 (methicillin-resistant); s.c. dosing 1 and 5 hours later; survival on day 7
Experimental: as §1, §2

mouse = assay: LD50 on injection to mouse; type: in vivo
Description: The growth-stimulating agent of this invention not only promotes growth of animals but also improves feed efficiency. Naturally, it is effective against infections by bacteria.

[17] = tested on: Staphylococcus aureus ATCC 25923; assay: In vitro antibacterial activity, agar dilution method (MIC); settings: 37° C., 18-20 hrs
Cl. perfringens SP07 = type: cell-based, Clostridium perfringens; settings: strain SP07, origin chicken; GAM agar, anaerobic, 37° C., 24 hours
broiler chicks = assay: Growth-stimulation test on chicks; type: in vivo, broiler chicks (arbor acre); settings: 20 ppm in feed for 14 days; for FCR: feed efficiency (B/A) / FCR (%), index when control group is 100 / Increase of weight (%), index when control group is 100: broiler chicks; for Increase of weight A (M = g) ± SD (average increase of weight): broiler chicks 8 to 22 days old, 24 chicks; for FCR (%), index when control group is 100 / Increase of weight (%), index when control group is 100: control = 100
Description: The growth-stimulating activities of PA-45052-A, PA-45052-B and PA-45052-E on broiler chicks (arbor acre, 8 days old) were investigated by using the known antibiotic thiopeptin as a referential agent. Chicks were fed with a feed mush (crude protein (CP) concentration 18%, each agent's concentration 20 ppm, not supplemented with other antibiotics) for 14 days in the battery brooders. The method of this experiment was as follows. After chicks were fed by floor pen with a feed (CP concentration 23%) from 0 to 8 days, they were divided into 5 groups (24 chicks a group, 12 male and 12 female) in such a way that the average weights of the groups are equal. To each group was administered PA-45052-A (20 ppm), PA-45052-B (20 ppm), PA-45052-E (20 ppm), thiopeptin (20 ppm) or only a feed (CP 18%) for 14 days. Each group was fed in cages (435×600×410 mm, each cage has 6-7 chicks) at 26°±2° C. for 14 days (up to 22 days old). Effectiveness was estimated from the increase of weight and the feed efficiency.

[18] = tested on: Streptococcus faecalis SR 1004; assay: In vitro antibacterial activity, agar dilution method (MIC); settings: horse serum 0.5%, 37° C., 18-20 hrs
[19] = tested on: Staphylococcus aureus SR3131; assay: as above; type: cell-based; settings: Staphylococcus aureus SR3131, methicillin-resistant, 37° C., 18-20 hrs
Cl. perfringens 3C-01 = type: cell-based, Clostridium perfringens; settings: strain 3C-01, origin chicken; GAM agar, anaerobic, 37° C., 24 hours
[20] = tested on: Streptococcus epidermidis ATCC 14490; assay: In vitro antibacterial activity, agar dilution method (MIC); settings: 37° C., 18-20 hrs

Row | Molecule | MIC (Cl. perfringens CW-1970) [µg/mL] | MIC [1] [µg/mL] | MIC [2] [µg/mL] | MIC (Cl. perfringens S-79) [µg/mL] | MIC [3] [µg/mL] | MIC (Cl. perfringens 02441) [µg/mL] | MIC [4] [µg/mL] | MIC [5] [µg/mL] | MIC [6] [µg/mL] | MIC [7] [µg/mL] | MIC [10] [µg/mL] | MIC [11] [µg/mL] | MIC [17] [µg/mL] | FCR: feed efficiency (B/A) (broiler chicks) | Increase of weight A (M = g) ± SD (average increase of weight) (broiler chicks) [g] | FCR (%), index when control group is 100 (broiler chicks) [%] | Increase of weight (%), index when control group is 100 (broiler chicks) [%] | MIC [18] [µg/mL] | MIC [19] [µg/mL] | MIC [20] [µg/mL] | also measured
1 | CNC(CC(C)C)C(=O)NC1C(=O)NC(CC(N)=O)C(=O)NC2C(=O)NC3C(=O)NC(C(=O)NC(C(=O)O)c4cc(O)cc(O)c4-c4cc3ccc4O)C(OC3CC(C)(N)C(O)C(C)O3)c3ccc(c(Cl)c3)Oc3cc2cc(c3OC2OC(CO)C(O)C(O)C2OC2CC(C)(N)C(O)C(C)O2)Oc2ccc(cc2Cl)C1O (centres unmarked) [PA-45052-A] | 0.39 (≈ 0.245 µM) | 0.2 (≈ 0.126 µM) | 0.1 (≈ 0.0628 µM) | 0.39 (≈ 0.245 µM) | 0.2 (≈ 0.126 µM) | 0.39 (≈ 0.245 µM) | 0.39 (≈ 0.245 µM) | 0.39 (≈ 0.245 µM) | 0.2 (≈ 0.126 µM) | 0.39 (≈ 0.245 µM) | 0.39 (≈ 0.245 µM) | 0.2 (≈ 0.126 µM) | 0.39 (≈ 0.245 µM) | 1.63 | 440.9 ± 60.4 | 95.3 | 105.9 | 0.78 (≈ 0.49 µM) | 0.39 (≈ 0.245 µM) | 0.78 (≈ 0.49 µM) | MIC (Cl. perfringens 6B-10): 0.39 µg/mL (≈ 0.245 µM); MIC [8]: 0.39 µg/mL (≈ 0.245 µM); MIC [9]: 0.39 µg/mL (≈ 0.245 µM); MIC (Cl. perfringens 9C-02): 0.39 µg/mL (≈ 0.245 µM); MIC [12]: 0.2 µg/mL (≈ 0.126 µM); ED50 (50% effective dose) [13]: 0.99 mg/kg/dose; ED50 (50% effective dose) [14]: 0.19 mg/kg/dose; ED50 (50% effective dose) [15]: 0.14 mg/kg/dose; ED50 (50% effective dose) [16]: 1.91 mg/kg/dose; LD50 (mouse): > 1000 mg/kg; MIC (Cl. perfringens SP07): 0.2 µg/mL (≈ 0.126 µM); MIC (Cl. perfringens 3C-01): 0.78 µg/mL (≈ 0.49 µM)
2 | CNC(CC(C)C)C(=O)NC1C(=O)NC(CC(N)=O)C(=O)NC2C(=O)NC3C(=O)NC(C(=O)NC(C(=O)O)c4cc(O)cc(O)c4-c4cc3ccc4O)C(OC3CC(C)(N)C(O)C(C)O3)c3ccc(c(Cl)c3)Oc3cc2cc(c3OC2OC(CO)C(O)C(O)C2O)Oc2ccc(cc2Cl)C1O (centres unmarked) [PA-45052-B] | 0.39 (≈ 0.269 µM) | 0.2 (≈ 0.138 µM) | 0.2 (≈ 0.138 µM) | 0.39 (≈ 0.269 µM) | 0.39 (≈ 0.269 µM) | 0.39 (≈ 0.269 µM) | 0.78 (≈ 0.538 µM) | 0.39 (≈ 0.269 µM) | 0.39 (≈ 0.269 µM) | 0.78 (≈ 0.538 µM) | 0.78 (≈ 0.538 µM) | 0.2 (≈ 0.138 µM) | 0.39 (≈ 0.269 µM) | 1.60 | 438.5 ± 51.6 | 93.6 | 105.4 | 0.78 (≈ 0.538 µM) | 0.39 (≈ 0.269 µM) | 1.56 (≈ 1.08 µM) | MIC (Cl. perfringens 6B-10): 0.39 µg/mL (≈ 0.269 µM); MIC [8]: 0.39 µg/mL (≈ 0.269 µM); MIC [9]: 0.39 µg/mL (≈ 0.269 µM); MIC (Cl. perfringens 9C-02): 0.39 µg/mL (≈ 0.269 µM); MIC [12]: 0.2 µg/mL (≈ 0.138 µM); ED50 (50% effective dose) [13]: 1.45 mg/kg/dose; ED50 (50% effective dose) [14]: 0.38 mg/kg/dose; ED50 (50% effective dose) [15]: 0.44 mg/kg/dose; ED50 (50% effective dose) [16]: 2.84 mg/kg/dose; LD50 (mouse): 1439 mg/kg; MIC (Cl. perfringens SP07): 0.2 µg/mL (≈ 0.138 µM); MIC (Cl. perfringens 3C-01): 0.78 µg/mL (≈ 0.538 µM)
3 | CC(C)CC(C(=O)NC1C(=O)NC(CC(N)=O)C(=O)NC2C(=O)NC3C(=O)NC(C(=O)NC(C(=O)O)c4cc(O)cc(O)c4-c4cc3ccc4O)C(OC3CC(C)(N)C(O)C(C)O3)c3ccc(c(Cl)c3)Oc3cc2cc(c3OC2OC(CO)C(O)C(O)C2O)Oc2ccc(cc2Cl)C1O)N(C)C (centres unmarked) [PA-45052-E] |  |  | 0.39 (≈ 0.267 µM) |  | 0.39 (≈ 0.267 µM) |  | 0.78 (≈ 0.533 µM) | 0.78 (≈ 0.533 µM) | 0.39 (≈ 0.267 µM) | 0.78 (≈ 0.533 µM) | 0.78 (≈ 0.533 µM) | 0.39 (≈ 0.267 µM) | 0.78 (≈ 0.533 µM) |  |  |  |  | 1.56 (≈ 1.07 µM) | 0.78 (≈ 0.533 µM) | 3.13 (≈ 2.14 µM) | 
4 | CC(C)CC(C(=O)NC1C(=O)NC(CC(N)=O)C(=O)NC2C(=O)NC3C(=O)NC(C(=O)NC(C(=O)O)c4cc(O)cc(O)c4-c4cc3ccc4O)C(OC3CC(C)(N)C(O)C(C)O3)c3ccc(c(Cl)c3)Oc3cc2cc(c3OC2OC(CO)C(O)C(O)C2OC2CC(C)(N)C(O)C(C)O2)Oc2ccc(cc2Cl)C1O)N(C)C (centres unmarked) [PA-45052-D] |  |  | 0.2 (≈ 0.124 µM) |  | 0.2 (≈ 0.124 µM) |  | 0.39 (≈ 0.243 µM) | 0.78 (≈ 0.486 µM) | 0.2 (≈ 0.124 µM) | 0.39 (≈ 0.243 µM) | 0.39 (≈ 0.243 µM) | 0.2 (≈ 0.124 µM) | 0.78 (≈ 0.486 µM) |  |  |  |  | 0.78 (≈ 0.486 µM) | 0.39 (≈ 0.243 µM) | 0.78 (≈ 0.486 µM) | 
5 | thiopeptin [reference compound] |  |  |  |  |  |  |  |  |  |  |  |  |  | 1.62 | 431.5 ± 53.4 | 94.7 | 103.7 |  |  |  | 
